Test results from PMC6896446, “Design, synthesis and molecular modelling studies of some pyrazole derivatives as carbonic anhydrase inhibitors” (Journal of Enzyme Inhibition and Medicinal Chemistry, 2019).
Read-outs that look alike come from different tables or passages of the source.

Tests used:
hCA I = target: T1, hCA I (Homo sapiens, UniProt P00915); experiment: hCA I inhibition, esterase activity method (4-nitrophenylacetate); assay type: biochemical; conditions: for IC50: against hCA I
T1 construct: The hCA I and II isoenzymes used here were purified from human blood as previously described; from tissue; host or cells: human blood

hCA II = target: T2, hCA II (Homo sapiens, UniProt P00918); experiment: hCA II inhibition, esterase activity method (4-nitrophenylacetate); assay type: biochemical
T2 construct: The hCA I and II isoenzymes used here were purified from human blood as previously described; from tissue; host or cells: human blood

[1] = esterase method, 4-nitrophenylacetate, pH 7.4, 25 °C, mean from at least three determinations, read-out: Ki hCA I
[2] = esterase method, 4-nitrophenylacetate, pH 7.4, 25 °C, mean from at least three determinations, read-out: Ki hCA II

T1 sequence (P00915 whole entry): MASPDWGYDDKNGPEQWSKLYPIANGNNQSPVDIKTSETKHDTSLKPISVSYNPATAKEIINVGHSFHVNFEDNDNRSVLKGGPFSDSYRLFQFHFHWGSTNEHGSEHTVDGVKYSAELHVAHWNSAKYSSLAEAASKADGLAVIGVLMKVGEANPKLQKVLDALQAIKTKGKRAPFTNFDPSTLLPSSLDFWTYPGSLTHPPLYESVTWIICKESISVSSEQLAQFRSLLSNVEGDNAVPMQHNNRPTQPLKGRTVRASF

| Ki (hCA I; [1]) [nM] | Ki (hCA II; [2]) [nM] | SMILES | also measured |
| --- | --- | --- | --- |
|  |  | CN(C)c1ccc(/C=C/C(=O)c2ccc(O)cc2)cc1 [Compound 5, (E)-3-(4-(dimethylamino)phenyl)-1-(4-hydroxyphenyl)prop-2-en-1-one] | Ki (hCA I): 8.28 nM; Ki (hCA II): 11.8 nM |
| 16.9 | 67.4 | COc1cc(/C=C/C(=O)c2ccc(C)cc2)cc(OC)c1OC [Compound 3, (E)-1-p-tolyl-3-(3,4,5-trimethoxyphenyl)prop-2-en-1-one] |  |
| 8.03 | 17.1 | COc1cc(/C=C/C(=O)c2ccc(Br)cc2)cc(OC)c1OC [Compound 2, (E)-1-(4-bromophenyl)-3-(3,4,5-trimethoxyphenyl)prop-2-en-1-one] |  |
| 12.6 |  | COc1cc(C2CC(c3ccc(Br)cc3)=NN2C(N)=S)cc(OC)c1OC (stereo not drawn) [Compound 7, 3-(4-Bromophenyl)-5-(3,4,5-trimethoxyphenyl)-4,5-dihydro-1H-pyrazole-1-carbothioamide] |  |
|  |  | COc1cc(/C=C/C(=O)c2ccc(N)cc2)cc(OC)c1OC [Compound 1, (E)-1-(4-aminophenyl)-3-(3,4,5-trimethoxyphenyl)prop-2-en-1-one] | Ki (hCA II): 33.8 nM |
| 12.2 |  | COc1cc(C2CC(c3ccc(N)cc3)=NN2C(N)=S)cc(OC)c1OC (stereo not drawn) [Compound 6, 3-(4-Aminophenyl)-5-(3,4,5-trimethoxyphenyl)-4,5-dihydro-1H-pyrazole-1-carbothioamide] | IC50 (hCA I): 23.9 to 24.4 nM |
| 11 | 26.1 | COc1cc(C2CC(c3ccc(C)cc3)=NN2C(N)=S)cc(OC)c1OC (stereo not drawn) [Compound 8, 3-p-Tolyl-5-(3,4,5-trimethoxyphenyl)-4,5-dihydro-1H-pyrazole-1-carbothioamide] |  |
| 11.9 | 41.3 | CN(C)c1ccc(C2CC(c3ccc(O)cc3)=NN2C(N)=S)cc1 (stereo not drawn) [Compound 10, 5-(4-(Dimethylamino)phenyl)-3-(4-hydroxyphenyl)-4,5-dihydro-1H-pyrazole-1-carbothioamide] | IC50 (hCA I): 23.9 to 24.4 nM; selectivity ratio (SR) hCA I versus hCA II (hCA I; hCA I versus hCA II): 3.46; melting point: 180 to 182 °C |

| SMILES | Ki (hCA I; [1]) [nM] | Ki (hCA II; [2]) [nM] | also measured |
| --- | --- | --- | --- |
| COc1ccc(/C=C/C(=O)c2ccc(N)cc2)cc1OC [Compound 4, (E)-1-(4-aminophenyl)-3-(3,4-dimethoxyphenyl)prop-2-en-1-one] | 9.71 | 21.5 |  |
| COc1ccc(C2CC(c3ccc(N)cc3)=NN2C(N)=S)cc1OC (stereo not drawn) [Compound 9, 3-(4-Aminophenyl)-5-(3,4-dimethoxyphenyl)-4,5-dihydro-1H-pyrazole-1-carbothioamide] |  | 20.4 | Ki (hCA I): 5.13 nM |
